Experimental data as given in patent US20220370481A1, “VENETOCLAX DOSING REGIMENS FOR USE IN TREATING MYELODYSPLASTIC SYNDROMES IN COMBINATION WITH A CYP3A INHIBITOR AND AZACITIDINE” (priority 2021, published 2022).
Read-outs that look alike come from different tables or passages of the source.

Tested on: adults with previously untreated higher-risk MDS
Conditions: with azacitidine
Experimental: A multicenter, non-randomized Phase 1b study in adults with previously untreated higher-risk MDS, defined as IPSS risk categories of Int-2 or High (IPSS overall score ≥1.5) was initiated. The original protocol randomized patients into 1 of 3 treatment groups: venetoclax 800 mg + azacitidine, venetoclax 400 mg + azacitidine, and azacitidine monotherapy. Under the original protocol, venetoclax was administered on Days 1 through 28 of each 28-day-cycle and dosing was initiated according to a ramp-up dosing schedule in Cycle 1.
Subjects 18 years or older diagnosed with treatment-naïve IPSS intermediate-2 or high-risk myelodysplastic syndromes with ECOG ≤2 were enrolled. For this study, inclusion criteria included the following: • 1. Subject must be ≥18 years of age. • 2. Subject must have documented diagnosis of previously untreated de novo MDS with: • a. International Prognostic Scoring System (IPSS) risk categories Intermediate-2 or High (i.e., minimum IPSS score of 1.5) OR Revised IPSS (IPSS-R) categories Intermediate, High or Very High (score of >3); and • b. Presence of <20% bone marrow blasts per bone marrow biopsy/aspirate. • 3. Subject must have an Eastern Cooperative Oncology Group (ECOG) performance score of ≤2.
Azacitidine 75 mg/m^2 (intravenous or subcutaneous daily) was administered for 7 days and venetoclax was administered at 400 mg for 14 days in each 28 day cycle. In both cohorts, dose modification during Cycle 1 was not recommended. Dose modifications in subsequent cycles were prescribed for adverse events. […] In subsequent cycles, venetoclax duration could be shortened to 9 days of each cycle. In Safety Expansion Cohort 2 (SE2), dose modification guidelines recommended stepwise reductions, first in azacitidine dose (first to 50 mg/m^2, then 36 mg/m^2) and subsequently in venetoclax duration to 7 days of each cycle (venetoclax 400 mg) as shown in Table 4. The impact of each dose modification strategy on safety and efficacy in SE1 versus SE2 was compared. Worsening of treatment-emergent adverse events grades from baseline was analyzed by cycle. Responses were evaluated using IWG 2006 criteria. Analyses included all subject who received ≥1 dose of study drug.
After a previous interruption of treatment, delay starting the next cycle, onset of adverse events associated with hematological toxicity, significant reduction of neutrophils, or significant reduction of platelets, a treatment dose reduction may be indicated. […] Venetoclax and azacitidine were resumed on the same day after any delays or interruptions in treatment.

CC1(C)CCC(CN2CCN(c3ccc(C(=O)NS(=O)(=O)c4ccc(NCC5CCOCC5)c([N+](=O)[O-])c4)c(Oc4cnc5[nH]ccc5c4)c3)CC2)=C(c2ccc(Cl)cc2)C1 [Venetoclax, 4-(4-{[2-(4-chlorophenyl)-4,4-dimethylcyclohex-1-en-1-yl]methyl}piperazin-1-yl)-N-({3nitro-4-[(tetrahydro-2H-pyran-4-ylmethyl)amino]phenyl}sulfonyl)-2-(1H-pyrrolo[2,3-b]pyridin5-yloxy)benzamide]
Venetoclax dose delay by end of each cycle (Cycle 2, SE1, n = 22): 14 (63) n (%)
Venetoclax dose delay by end of each cycle, Median # days (range) (Cycle 2, SE1, n = 22): 7.5 (1-21) days
Venetoclax dose delay by end of each cycle (Cycle 2, SE2, n = 21): 13 (62) n (%)
Venetoclax dose delay by end of each cycle, Median # days (range) (Cycle 2, SE2, n = 21): 8 (5-21) days
Venetoclax dose delay by end of each cycle (Cycle 3, SE1, n = 22): 12 (55) n (%)
Venetoclax dose delay by end of each cycle, Median # days (range) (Cycle 3, SE1, n = 22): 14 (3-28) days
Venetoclax dose delay by end of each cycle (Cycle 3, SE2, n = 21): 10 (48) n (%)
Venetoclax dose delay by end of each cycle, Median # days (range) (Cycle 3, SE2, n = 21): 8.5 (1-48) days
Venetoclax dose delay by end of each cycle (Cycle 4, SE1, n = 22): 8 (36) n (%)
Venetoclax dose delay by end of each cycle, Median # days (range) (Cycle 4, SE1, n = 22): 17 (1-54) days
Venetoclax dose delay by end of each cycle (Cycle 4, SE2, n = 21): 6 (28) n (%)
Venetoclax dose delay by end of each cycle, Median # days (range) (Cycle 4, SE2, n = 21): 9 (6-43) days
Venetoclax dose delay by end of each cycle (Cycle 5, SE1, n = 22): 7 (32) n (%)
Venetoclax dose delay by end of each cycle, Median # days (range) (Cycle 5, SE1, n = 22): 14 (3-28) days
Venetoclax dose delay by end of each cycle (Cycle 5, SE2, n = 21): 9 (43) n (%)
Venetoclax dose delay by end of each cycle, Median # days (range) (Cycle 5, SE2, n = 21): 14 (1-97) days
Venetoclax dose delay by end of each cycle (Cycle 6, SE1, n = 22): 7 (32) n (%)
Venetoclax dose delay by end of each cycle, Median # days (range) (Cycle 6, SE1, n = 22): 7 (1-21) days
Venetoclax dose delay by end of each cycle (Cycle 6, SE2, n = 21): 5 (24) n (%)
Venetoclax dose delay by end of each cycle, Median # days (range) (Cycle 6, SE2, n = 21): 14 (6-91) days
# of reductions in Venetoclax duration (due to hematologic toxicity) (SE1, n = 22): 3 (14)
Patients with ≥1 Ven dose amount reduction (SE1, n = 22): 10 (45) n (%)
Venetoclax: Median days to duration reduction (SE1, n = 22): 52 days
# of reductions in Venetoclax duration (due to hematologic toxicity) (SE2, n = 21): 0
Patients with ≥1 Ven dose amount reduction (SE2, n = 21): 10 (48) n (%)
